What all share (details): qualitative statement
In one experiment the test system is cMYC expression. Put plainly: cMYC expression down-regulation. It is filed as cell-based.
In experiment [1] the test system is multiple liquid cancer cell lines. Put plainly: Anti-proliferative activity against liquid cancer cell lines. It is filed as cell-based.
For another experiment, the target named is JAK2 (Homo sapiens, UniProt O60674). Put plainly: In vitro biochemical assay, JAK2 inhibition.
The next experiment concerns the target BRD4 BD1 (Homo sapiens, UniProt O60885). Put plainly: In vitro biochemical assay, BRD4 BD1 inhibition.
Another experiment deals with BRD4 BD2 (Homo sapiens, UniProt O60885). Put plainly: In vitro biochemical assay, BRD4 BD2 inhibition.
The test system of a further experiment is JAK2 signaling. Put plainly: JAK2 signaling down-regulation. It is filed as cell-based.

Sequence of JAK2 (O60674 whole entry): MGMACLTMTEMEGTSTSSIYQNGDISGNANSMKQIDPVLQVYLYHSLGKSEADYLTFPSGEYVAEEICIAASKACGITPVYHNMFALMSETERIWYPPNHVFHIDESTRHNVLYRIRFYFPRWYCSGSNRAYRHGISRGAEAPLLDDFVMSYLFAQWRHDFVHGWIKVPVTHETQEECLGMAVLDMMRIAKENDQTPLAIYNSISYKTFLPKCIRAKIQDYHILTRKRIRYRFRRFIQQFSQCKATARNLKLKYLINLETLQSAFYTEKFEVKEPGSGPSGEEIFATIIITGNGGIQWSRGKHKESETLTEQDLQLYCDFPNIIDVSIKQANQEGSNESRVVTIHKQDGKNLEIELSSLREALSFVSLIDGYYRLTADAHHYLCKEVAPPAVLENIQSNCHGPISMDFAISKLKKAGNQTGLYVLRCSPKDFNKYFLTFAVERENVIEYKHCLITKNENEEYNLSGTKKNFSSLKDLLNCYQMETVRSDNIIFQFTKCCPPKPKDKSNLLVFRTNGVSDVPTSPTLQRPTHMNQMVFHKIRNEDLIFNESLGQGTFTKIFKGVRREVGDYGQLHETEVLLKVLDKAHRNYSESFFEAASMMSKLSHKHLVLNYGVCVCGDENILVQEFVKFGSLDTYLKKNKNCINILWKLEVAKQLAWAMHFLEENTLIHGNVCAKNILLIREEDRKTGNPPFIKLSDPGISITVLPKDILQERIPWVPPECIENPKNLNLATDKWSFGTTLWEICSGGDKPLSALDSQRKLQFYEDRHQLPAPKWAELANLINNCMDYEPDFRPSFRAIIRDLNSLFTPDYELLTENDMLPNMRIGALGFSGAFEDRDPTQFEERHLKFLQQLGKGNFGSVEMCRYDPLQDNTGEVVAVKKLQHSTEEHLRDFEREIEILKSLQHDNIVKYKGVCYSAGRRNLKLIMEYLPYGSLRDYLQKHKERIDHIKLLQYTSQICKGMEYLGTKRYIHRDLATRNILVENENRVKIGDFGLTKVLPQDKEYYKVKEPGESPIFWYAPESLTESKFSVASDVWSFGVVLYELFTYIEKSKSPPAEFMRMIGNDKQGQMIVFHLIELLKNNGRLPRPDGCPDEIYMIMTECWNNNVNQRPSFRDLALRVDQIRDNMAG

For the molecule `CN(C)C1CCN(c2ccc(Nc3ncc4ccn(-c5cccc(NS(=O)(=O)C(C)(C)C)c5)c4n3)cc2F)CC1` [OHM-581, N-(3-(2-((4-(4-(dimethylamino)piperidin-1-yl)-3-fluorophenyl)amino)-7H-pyrrolo[2,3-d]pyrimidin-7-yl)phenyl)-2-methylpropane-2-sulfonamide], the cMYC expression entry in the experiment on cMYC expression is “robustly down-regulates”. Also, the anti-proliferative activity entry in experiment [1] is “significant anti-proliferative activity”. Further, on JAK2, the “inhibition of JAK2” value is reported as “inhibit”. At BRD4 BD1, the “inhibition of BRD4 BD1” value is on record as “inhibit”. Besides, the “inhibition of BRD4 BD2” value against BRD4 BD2 is on record as “inhibit”. In the experiment on JAK2 signaling, the JAK2 signaling entry is reported as “robustly down-regulates”.

Source of the values: patent US20220315594A1, “METHOD OF SYNTHESIS OF COMPOUND FOR DUAL INHIBITION OF JAK2 AND BET” (OHM ONCOLOGY, priority 2019, published 2022).
